{"source": "patent US20170368082A1", "about": "“FORMULATIONS OF BRINCIDOFOVIR” (priority 2016, published 2017)", "key": {"human whole blood": {"test_system": "human whole blood", "assay": "Hemolytic potential, cyanmethemoglobin method, human whole blood", "type": "cell-based", "settings": "for Mean HgB Concentration: interference control, Phase 2", "procedure": "Each concentration of test item for the rat was mixed separately in a 1:4 ratio with rat whole blood while each concentration of test item for the human was mixed separately in a 1:4 ratio with human whole blood. These samples plus control samples [vehicle control (vehicle+whole blood, 1 for rat and 1 for humans), positive control (1% Saponin+whole blood), untreated whole blood control and negative control (saline+whole blood) were analyzed for hemolysis (supernatant hemoglobin concentration).\n(§1) The rat and human whole blood samples were incubated in test or control items at 37±1° C. for 20 minutes and then immediately (within 2 minutes) centrifuged at 3500±100 rpm (2740 g) at room temperature for 5-10 minutes. The supernatant was extracted and subjected to a hemoglobin analysis using the cyanmethemoglobin method employed on the Siemens Advia 120 hematology analyzer. If the test item has a potential for causing hemolysis, then hemoglobin released from lysed red blood cells into the plasma supernatant can be quantified via the reaction of heme iron in solution being oxidized from a ferrous to a ferric state in the presence of potassium cyanide. The reaction results in the formation of methemoglobin, which then combines with cyanide to form a stable cyanmethemoglobin. When measured spectrophotometrically at 546 nm the absorbance of cyanmethemoglobin follows Beer's Law and is directly proportional to the concentration of hemoglobin released into solution.\nas §1, with “Without wishing to be bound by theory, if” for “If”"}, "[1]": {"assay": "pH stability of brincidofovir stock solutions (50 μg/mL, 50 mM phosphate pH 6.0-8.0, 20% methanol)", "type": "physicochemical", "procedure": "Brincidofovir sample stock solutions (50 μg/mL) were prepared in 50 mM phosphate buffer at pH 6.0-8.0 containing 20% methanol. The samples were aliquoted and stored at two temperatures (T=2-8° C. and T=40° C.), and monitored for pH and recovery of brincidofovir at multiple time points over the course of two weeks. Under both conditions, the samples maintained the pH level throughout the time course of the experiment.\nThe decrease may be related to the observed precipitation. Variation for pH 7.0 is observed for t>8 days. One impurity (RT=4.7 min) was detected that exceeded the set total peak area threshold that was applied for peak integration. The percent of the total peak area was below 0.4% for samples at pH 6 and 6.5, and below 0.1% for samples at higher pH.\nFor the samples at lower pH, a peak associated with the deamination product of brincidofovir, was observed, encompassing an area % of 1.91 at pH 6.0, and 0.58 at pH 6.5. The degradants peak is not observed at neutral pH and above."}, "[2]": {"assay": "Stability study I (with dextrose): accelerated stability study", "type": "physicochemical", "procedure": "Testing of the chemical degradation was performed in an accelerated stability study setup applying heat as an accelerator/stressor. An Arrhenius analysis was carried out providing an API half-life and a degradation rate at lower temperatures. Physical stability was evaluated at the desired storage temperature (2-8° C.); a benchmark/reference condition was likewise included in the study. The setup of the study is specified below:\nAccelerated stability study: 50° C., 60° C., 65° C., 70° C., 75° C.,\nAccelerated stability study: initial, 2, 6, 9, 14 days,\nappearance, pH, c(BCV) recovery (HPLC), purity (HPLC), and liquid particle counting (physical degradation and benchmark stability study),\nThe stability testing results (accelerated conditions), i.e., the changes of pH and trends of brincidofovir recovery over the course of the stability study are summarized in Table 8 and Table 9 for the formulations at 10 mg/mL and 15 mg/mL respectively."}, "[3]": {"assay": "Comparison of toxicity of orally and intravenously administered brincidofovir (rat intestine)", "type": "in vivo", "settings": "for AUC / Cmax: rat, in vivo; for AUC: read-out: Exposure AUC; for Cmax: read-out: Exposure Cmax", "source_text": "As shown in the figures, IV administration of brincidofovir is more well-tolerated in the intestine."}, "[4]": {"settings": "Sprague-Dawley CD, IV, repeat dose 1 mg/kg"}, "[5]": {"settings": "Sprague-Dawley CD, IV, repeat dose 4 mg/kg"}, "[6]": {"settings": "Sprague-Dawley CD, IV, repeat dose 15 mg/kg"}}, "note": "Entries after “also recorded” stand apart in the source; their conditions may differ. Like-named read-outs stand apart in the source and are kept apart here.", "data": [{"smiles": "CCCCCCCCCCCCCCCCOCCCOP(=O)(O)CO[C@H](CO)Cn1ccc(N)nc1=O", "note": "[Brincidofovir]", "values": [{"measurement": "Hemocompatibility / hemolytic potential", "setting": "human whole blood; 0.2, 0.5 and 1.6 mg/mL", "result": "no hemolytic potential in human whole blood; also recorded: no effect from brincidofovir on hemocompatibility"}, {"measurement": "Mean HgB Concentration", "setting": "human whole blood; Tube 2A: Test Item (0.2 mg/mL) + saline", "result": 0.0, "unit": "g/dL"}, {"measurement": "Mean HgB Concentration", "setting": "human whole blood; Tube 2B: Test Item (0.5 mg/mL) + saline", "result": 0.0, "unit": "g/dL"}, {"measurement": "Mean HgB Concentration", "setting": "human whole blood; Tube 2C: Test Item (1.6 mg/mL) + saline", "result": 0.0, "unit": "g/dL"}, {"measurement": "Impurity (RT=4.7 min), percent of total peak area", "setting": "[1]; 2-8 °C, higher pH", "result": "below 0.1%"}, {"measurement": "Time at which precipitation was observed", "setting": "[1]; 2-8 °C, pH 6.0", "result": 2, "unit": "days"}, {"measurement": "Impurity (RT=4.7 min), percent of total peak area", "setting": "[1]; 2-8 °C, pH 6 and 6.5", "result": "below 0.4%"}, {"measurement": "Time at which precipitation was observed", "setting": "[1]; 2-8 °C, pH 6.5", "result": 2, "unit": "days"}, {"measurement": "Time at which precipitation was observed", "setting": "[1]; 2-8 °C, pH 7.0", "result": 4, "unit": "days"}, {"measurement": "Appearance", "setting": "[1]; 2-8 °C, pH 7.5 and pH 8.0, two weeks", "result": "no observable change in appearance"}, {"measurement": "Appearance", "setting": "[1]; 40 °C, any pH", "result": "no physical change in appearance"}, {"measurement": "Deamination product peak area %", "setting": "[1]; 40 °C, pH 6.0", "result": 1.91, "unit": "%"}, {"measurement": "Deamination product peak area %", "setting": "[1]; 40 °C, pH 6.5", "result": 0.58, "unit": "%"}, {"measurement": "Degradation of brincidofovir over two weeks", "setting": "[2]; 50 °C", "result": 16, "unit": "%"}, {"measurement": "Degradation of brincidofovir over two weeks", "setting": "[2]; 75 °C", "result": 22, "unit": "%"}, {"measurement": "Impurities", "setting": "[2]; 75 °C station, both starting concentrations", "result": "up to 16%"}, {"measurement": "Intestinal finding", "setting": "[3]; IV administration", "result": "minimal single-cell effects"}, {"measurement": "Preliminary Findings", "setting": "[3]; IV, repeat dose 1 mg/kg", "result": "No GI findings"}, {"measurement": "AUC", "setting": "[3]; [4]", "result": 410, "unit": "ng·h/mL"}, {"measurement": "Cmax", "setting": "[3]; [4]", "result": 298, "unit": "ng/mL"}, {"measurement": "AUC", "setting": "[3]; [5]", "result": 2760, "unit": "ng·h/mL"}, {"measurement": "Cmax", "setting": "[3]; [5]", "result": 1200, "unit": "ng/mL"}, {"measurement": "AUC", "setting": "[3]; [6]", "result": 9890, "unit": "ng·h/mL"}, {"measurement": "Cmax", "setting": "[3]; [6]", "result": 4500, "unit": "ng/mL"}, {"measurement": "Intestinal finding", "setting": "[3]; oral administration", "result": "significant loss of epithelium in intestinal villi"}, {"measurement": "mortality", "setting": "[3]; oral, single dose 100 mg/kg", "result": 38, "unit": "% mortality"}, {"measurement": "mortality", "setting": "[3]; oral, single dose 300 mg/kg", "result": 100, "unit": "% mortality"}, {"measurement": "AUC", "setting": "[3]; oral, single dose 30 mg/kg", "result": 5560, "unit": "ng·h/mL"}, {"measurement": "Cmax", "setting": "[3]; oral, single dose 30 mg/kg", "result": 426, "unit": "ng/mL"}, {"measurement": "AUC", "setting": "[3]; oral, single dose 100 mg/kg", "result": 13600, "unit": "ng·h/mL"}, {"measurement": "Cmax", "setting": "[3]; oral, single dose 100 mg/kg", "result": 1090, "unit": "ng/mL"}, {"measurement": "AUC", "setting": "[3]; oral, single dose 300 mg/kg", "result": 20500, "unit": "ng·h/mL"}, {"measurement": "Cmax", "setting": "[3]; oral, single dose 300 mg/kg", "result": 1190, "unit": "ng/mL"}, {"measurement": "AUC", "setting": "[3]; oral, single dose 1000 mg/kg", "result": 26400, "unit": "ng·h/mL"}, {"measurement": "Cmax", "setting": "[3]; oral, single dose 1000 mg/kg", "result": 1380, "unit": "ng/mL"}]}]}
